Experimental data as given in patent US20260226068A1, “IMIDAZOTRIAZINE IL-17A MODULATORS AND USES THEREOF” (DICE ALPHA, INC., priority 2023, published 2026).

What was measured:
IL-17A/A = target: T1, IL-17A/A (Homo sapiens, UniProt Q16552); assay: IL-17A/A HEK-Blue cell assay (SEAP reporter); assay type: cell-based; settings: HEK-Blue IL-17A reporter cells, IL17A/A 5 ng/mL, 20 hours, SEAP read at A630; read-out: HEK-Blue IL17AA (IC50 for IL-17A/A inhibition)
T1 construct: purchased Genscript Z03228
T1 sequence (Q16552 24-155): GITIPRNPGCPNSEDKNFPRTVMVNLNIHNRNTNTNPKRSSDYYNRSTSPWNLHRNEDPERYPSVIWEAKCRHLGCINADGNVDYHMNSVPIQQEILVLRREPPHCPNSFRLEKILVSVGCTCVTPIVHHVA

IL-17A/F = target: T2, IL-17A/F (Homo sapiens, UniProt Q16552+Q96PD4); assay: IL-17A/F HEK-Blue cell assay (SEAP reporter); assay type: cell-based; settings: HEK-Blue IL-17A reporter cells, IL17A/F 5 ng/mL, 20 hours, SEAP read at A630; read-out: HEK-Blue IL17AF (IC50 for IL-17A/F inhibition)
T2 construct: purchased R&D Systems
T2 sequence (Q16552 24-155): T1 sequence (Q16552 24-155)
T2 sequence (Q96PD4 31-163): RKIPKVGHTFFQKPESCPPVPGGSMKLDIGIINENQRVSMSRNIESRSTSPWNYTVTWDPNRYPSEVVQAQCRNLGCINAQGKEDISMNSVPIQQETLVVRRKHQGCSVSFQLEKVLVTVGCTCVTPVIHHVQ

| SMILES | IC50 (IL-17A/A) [nM] | IC50 (IL-17A/F) [nM] |
| --- | --- | --- |
| Cn1nccc1C(=O)N[C@H](c1cn2nc(C[C@H]3C[C@@H](C(F)(F)F)CNC3=O)c(C3CCOCC3)nc2n1)[C@H]1CC[C@H](C)CC1 [Compound 218, 1-methyl-N—((S)-((1r,4S)-4-methylcyclohexyl)(2-(((3R,5R)-2-oxo-5-(trifluoromethyl)piperidin-3-yl)methyl)-3-(tetrahydro-2H-pyran-4-yl)imidazo[1,2-b][1,2,4]triazin-6-yl)methyl)-1H-pyrazole-5-carboxamide] | < 100 | < 100 |
| CCn1nccc1C(=O)N[C@H](c1cn2nc(C[C@H]3C[C@H](C)CNC3=O)c(C3CCOCC3)nc2n1)C1CCC(F)(F)CC1 [Compound 219] | < 100 | 100 to 1000 |
| CCn1nccc1C(=O)N[C@H](c1cn2nc(C[C@@H]3C[C@H](C)CNC3=O)c(C3CCOCC3)nc2n1)C1CCC(F)(F)CC1 [Compound 220] | < 100 | 100 to 1000 |
| CCc1nonc1C(=O)N[C@H](c1cn2nc(C[C@H]3C[C@@H](C(F)(F)F)CNC3=O)c(C3CCOCC3)nc2n1)C1CCCCC1 [Compound 221, N—((S)-cyclohexyl(2-(((3R,5R)-2-oxo-5-(trifluoromethyl)piperidin-3-yl)methyl)-3-(tetrahydro-2H-pyran-4-yl)imidazo[1,2-b][1,2,4]triazin-6-yl)methyl)-4-ethyl-1,2,5-oxadiazole-3-carboxamide] | < 100 | 100 to 1000 |
| CCn1nccc1C(=O)N[C@H](c1cn2nc(C[C@@H]3CC(F)(F)CNC3=O)c(C3CCOCC3)nc2n1)C1CCC(F)(F)CC1 [Compound 222] | < 100 | > 1000 |
| CCn1nccc1C(=O)N[C@H](c1cn2nc(C[C@@H]3CC(F)(F)CNC3=O)c(C3CCOCC3)nc2n1)[C@H]1CC[C@H](C)CC1 [Compound 223] | < 100 | 100 to 1000 |
| CCn1nccc1C(=O)N[C@H](c1cn2nc(C[C@H]3C[C@@H](C(F)(F)F)CNC3=O)c(C3CCCN(CCOC)C3)nc2n1)C1CCC(F)(F)CC1 (stereo partly drawn) [Compound 226, N-((1S)-(4,4-difluorocyclohexyl)(3-(1-(2-methoxyethyl)piperidin-3-yl)-2-(((3R,5R)-2-oxo-5-(trifluoromethyl)piperidin-3-yl)methyl)imidazo[1,2-b][1,2,4]triazin-6-yl)methyl)-1-ethyl-1H-pyrazole-5-carboxamide] | < 100 | > 1000 |
| Cn1ncnc1C(=O)N[C@H](c1cn2nc(C[C@H]3C[C@@H](C(F)(F)F)CNC3=O)c(C3CCOCC3)nc2n1)C1CCC(F)(F)CC1 [Compound 228] | < 100 | > 1000 |
| CCn1nccc1C(=O)N[C@H](c1cn2nc(C[C@H]3C[C@@H](C(F)(F)F)CNC3=O)c(C3CCCCN3C)nc2n1)C1CCC(F)(F)CC1 (some centres unmarked) [Compound 230] | 100 to 1000 | > 1000 |
| CCn1nccc1C(=O)N[C@H](c1cn2nc(C[C@H]3C[C@@H](C(F)(F)F)CNC3=O)c(C3CCS(=O)(=O)CC3)nc2n1)C1CCC(F)(F)CC1 [Compound 234, N—((S)-(4,4-difluorocyclohexyl)(3-(1,1-dioxidotetrahydro-2H-thiopyran-4-yl)-2-(((3R,5R)-2-oxo-5-(trifluoromethyl)piperidin-3-yl)methyl)imidazo[1,2-b][1,2,4]triazin-6-yl)methyl)-1-ethyl-1H-pyrazole-5-carboxamide] | < 100 | 100 to 1000 |
| CCn1nccc1C(=O)N[C@H](c1cn2nc(C[C@H]3C[C@@H](C(F)(F)F)CNC3=O)c(N3CCOC[C@H]3C)nc2n1)C1CCC(F)(F)CC1 [Compound 236] | < 100 | 100 to 1000 |
| CCn1nccc1C(=O)N[C@H](c1cn2nc(C[C@H]3C[C@@H](C(F)(F)F)CNC3=O)c(N(C)CCOC)nc2n1)C1CCC(F)(F)CC1 [Compound 237, N—((S)-(4,4-difluorocyclohexyl)(3-((2-methoxyethyl)(methyl)amino)-2-(((3R,5R)-2-oxo-5-(trifluoromethyl)piperidin-3-yl)methyl)imidazo[1,2-b][1,2,4]triazin-6-yl)methyl)-1-ethyl-1H-pyrazole-5-carboxamide] | < 100 | 100 to 1000 |
| CCn1nccc1C(=O)N[C@H](c1cn2nc(C[C@H]3C[C@@H](C(F)(F)F)CNC3=O)c(N3CCN(C(=O)OC(C)(C)C)[C@@H](C)C3)nc2n1)C1CCC(F)(F)CC1 [Compound 238, tert-butyl (S)-4-(6-((S)-(4,4-difluorocyclohexyl)(1-ethyl-1H-pyrazole-5-carboxamido)methyl)-2-(((3R,5R)-2-oxo-5-(trifluoromethyl)piperidin-3-yl)methyl)imidazo[1,2-b][1,2,4]triazin-3-yl)-2-methylpiperazine-1-carboxylate] | 100 to 1000 | 100 to 1000 |
| CCn1nccc1C(=O)N[C@H](c1cn2nc(C[C@H]3C[C@@H](C(F)(F)F)CNC3=O)c(N3CCN[C@@H](C)C3)nc2n1)C1CCC(F)(F)CC1 [Compound 239, N—((S)-(4,4-difluorocyclohexyl)(3-((S)-3-methylpiperazin-1-yl)-2-(((3R,5R)-2-oxo-5-(trifluoromethyl)piperidin-3-yl)methyl)imidazo[1,2-b][1,2,4]triazin-6-yl)methyl)-1-ethyl-1H-pyrazole-5-carboxamide] | 100 to 1000 | > 1000 |
| CCn1nccc1C(=O)N[C@H](c1cn2nc(C[C@H]3C[C@@H](C(F)(F)F)CNC3=O)c(C3CCOC4(C3)CN(C(=O)OC(C)(C)C)C4)nc2n1)C1CCC(F)(F)CC1 (stereo partly drawn) [Compound 240, tert-butyl 8-(6-((S)-(4,4-difluorocyclohexyl)(1-ethyl-1H-pyrazole-5-carboxamido)methyl)-2-(((3R,5R)-2-oxo-5-(trifluoromethyl)piperidin-3-yl)methyl)imidazo[1,2-b][1,2,4]triazin-3-yl)-5-oxa-2-azaspiro[3.5]nonane-2-carboxylate] | 100 to 1000 | 100 to 1000 |
| CCn1nccc1C(=O)N[C@H](c1cn2nc(C[C@H]3C[C@@H](C(F)(F)F)CNC3=O)c(N3C[C@@H](C)O[C@H](C)C3)nc2n1)C1CCC(F)(F)CC1 [Compound 241, N—((S)-(4,4-difluorocyclohexyl)(3-((2R,6R)-2,6-dimethylmorpholino)-2-(((3R,5R)-2-oxo-5-(trifluoromethyl)piperidin-3-yl)methyl)imidazo[1,2-b][1,2,4]triazin-6-yl)methyl)-1-ethyl-1H-pyrazole-5-carboxamide] | < 100 | < 100 |
| CCn1nccc1C(=O)N[C@H](c1cn2nc(C[C@H]3C[C@@H](C(F)(F)F)CNC3=O)c(N3CCN(C(C)(C)C)CC3)nc2n1)C1CCC(F)(F)CC1 [Compound 242, N—((S)-(3-(4-(tert-butyl)piperazin-1-yl)-2-(((3R,5R)-2-oxo-5-(trifluoromethyl)piperidin-3-yl)methyl)imidazo[1,2-b][1,2,4]triazin-6-yl)(4,4-difluorocyclohexyl)methyl)-1-ethyl-1H-pyrazole-5-carboxamide] | < 100 | 100 to 1000 |
| O=C(N[C@H](c1cn2nc(C[C@H]3C[C@@H](C(F)(F)F)CNC3=O)c(C3CCS(=O)(=O)CC3)nc2n1)C1CCC(F)(F)CC1)c1nonc1C1CC1 [Compound 243, 4-cyclopropyl-N—((S)-(4,4-difluorocyclohexyl)(3-(1,1-dioxidotetrahydro-2H-thiopyran-4-yl)-2-(((3R,5R)-2-oxo-5-(trifluoromethyl)piperidin-3-yl)methyl)imidazo[1,2-b][1,2,4]triazin-6-yl)methyl)-1,2,5-oxadiazole-3-carboxamide] | < 100 | > 1000 |
| CCn1nccc1C(=O)N[C@H](c1cn2nc(C[C@H]3C[C@@H](C(F)(F)F)CNC3=O)c(N3CCN(CC4CC4)CC3)nc2n1)C1CCC(F)(F)CC1 [Compound 244, N—((S)-(3-(4-(cyclopropylmethyl)piperazin-1-yl)-2-(((3R,5R)-2-oxo-5-(trifluoromethyl)piperidin-3-yl)methyl)imidazo[1,2-b][1,2,4]triazin-6-yl)(4,4-difluorocyclohexyl)methyl)-1-ethyl-1H-pyrazole-5-carboxamide] | < 100 | 100 to 1000 |
| CCn1nccc1C(=O)N[C@H](c1cn2nc(C[C@H]3C[C@@H](C(F)(F)F)CNC3=O)c(N3CCCOCC3)nc2n1)C1CCC(F)(F)CC1 [Compound 245, N—((S)-(3-(1,4-oxazepan-4-yl)-2-(((3R,5R)-2-oxo-5-(trifluoromethyl)piperidin-3-yl)methyl)imidazo[1,2-b][1,2,4]triazin-6-yl)(4,4-difluorocyclohexyl)methyl)-1-ethyl-1H-pyrazole-5-carboxamide] | < 100 | 100 to 1000 |
| Cc1nccnc1C(=O)N[C@H](c1cn2nc(C[C@H]3C[C@@H](C(F)(F)F)CNC3=O)c(C3CCOCC3)nc2n1)C1CCC(F)(F)CC1 [Compound 246, N—((S)-(4,4-difluorocyclohexyl)(2-(((3R,5R)-2-oxo-5-(trifluoromethyl)piperidin-3-yl)methyl)-3-(tetrahydro-2H-pyran-4-yl)imidazo[1,2-b][1,2,4]triazin-6-yl)methyl)-3-methylpyrazine-2-carboxamide] | 100 to 1000 | > 1000 |
| CCn1nccc1C(=O)N[C@H](c1cn2nc(C[C@H]3C[C@@H](C(F)(F)F)CNC3=O)c(N3C[C@@H](C)O[C@@H](C)C3)nc2n1)C1CCC(F)(F)CC1 [Compound 247, N—((S)-(4,4-difluorocyclohexyl)(3-((2R,6S)-2,6-dimethylmorpholino)-2-(((3R,5R)-2-oxo-5-(trifluoromethyl)piperidin-3-yl)methyl)imidazo[1,2-b][1,2,4]triazin-6-yl)methyl)-1-ethyl-1H-pyrazole-5-carboxamide] | < 100 | 100 to 1000 |
